Consider four compounds from patent US11952362B2, “Compositions and methods for treating epigenetic disease” (The Regents of the University of California, priority 2018, dated 2024).

Series [1] in a line: Water solubility of MJK compounds. The series is classed as physicochemical. An excerpt:
Solubility of MJK compounds: The development of an oral formulation for patients with auto-immune diseases, including Crohn's Disease, is preferential and less expensive, avoiding the need of hospitalization in comparison to the intracolonic (enema) administration. Thus, the water solubility and physical properties of the MJK compounds were examined. […] MJK-008 is the highest soluble MJK compound.

Series [2] deals with TNBS colitis. In words: TNBS colitis in mice. The class given is in vivo. The note with it: for overall score: overall efficacy. Here is the method: Male C57BL/6J mice 8-10 weeks old were purchased from The Jackson Laboratory (Sacramento, CA, USA). Mice were housed 4 per cage, maintained on a 12:12 hour light-dark cycle and given access to food and water ad libitum. Following an acclimatization period of 3 to 5 days, trinitrobenzene sulfonic acid (TNBS, Millipore Sigma, St. Louis, MO, USA) colitis was induced by intracolonic (i.c.) injection of 0.05 ml TNBS solution (5 mg in 40% ethanol) via a polyethylene cannula (BD Intramedic PE-20 tubing, Thermo Fisher Scientific, Santa Clara, CA, USA) inserted 3.5 cm from the anal verge under isoflurane anesthesia (4% in O2 induction, 2.5-3% maintenance). Control mice received an injection of 40% ethanol (0.05 ml, i.c.). To test the effectiveness of the HDAC analogs, mice received a daily injection (0.1 ml, i.c.) of a selective HDAC class II inhibitor analog (50 mg/kg MJK001-013) or vehicle (5% dimethyl sulfoxide, Millipore Sigma) beginning one day prior to TNBS colitis induction (day −1) for a period of 5 days. Separate groups of mice received HDAC inhibitors or vehicle administered by daily oral gavage (50 mg/kg, 0.25 ml, p.o.). All analogs tested were first dissolved in dimethyl sulfoxide (DMSO) with rapid vortexing and subsequent dilution to 5% in sterile phosphate buffered saline (PBS; Gibco, Thermo Fisher Scientific). Vehicle contained 5% DMSO in sterile PBS. Prior to use, all solids were stored in amber (light-blocking) storage vials at 4° C. On the first day of administration, stock solutions were prepared, aliquoted and stored at −20° C. for daily use. Upon thawing, each aliquot was vortexed prior to intracolonic injection (via a polyethylene cannula) or oral gavage (20 ga×38 mm, Instech, Thermo Fisher Scientific). Following all in vivo experiments, animals were euthanized on day 4 by CO2 inhalation and cervical dislocation and the distal colons removed for further study.
Disease severity was assessed by weight loss and measurement of colon length and determination of clinical and histological damage scores on day 4 of the protocol. Briefly, clinical scores were calculated on a scale of 0-3 for degree of weight loss, bleeding, stool consistency and presence of rectal prolapse. Sections of colon (5 μm) fixed in 10% formalin, paraffin-embedded and stained with hematoxylin and eosin (H&E) were used for histological scoring using an AxioImager. Z1 microscope equipped with AxioVision software version 4.6 (Zeiss, Jena, Germany). Scoring was performed by two independent investigators blinded to the treatment conditions and resulting scores averaged. Scores were assigned based on the degree of crypt damage (0-4), polymorphonuclear neutrophil (PMN) infiltrate (0-3), erosion (0-3), and edema (0-3).
Statistical analyses were performed using GraphPad Prism (Version 5.0a; GraphPad Software, La Jolla, CA, USA). Differences were determined by unpaired t-test, 1-way analysis of variance, or a 2-way analysis of variance with Tukey's post-test. A p value <0.05 was considered to be statistically significant. Data presented are means±SEM for n animals.
Novel chemical HDAC inhibitors were developed aiming to target specific isoforms of the HDAC Class IIA members. Overall, as shown above, compounds have been synthesized, named MJK-001, -002, -003, -004, -005, -006, -007, -008, -009, -010, -011, -012 & -013. The effect of selective HDAC class IIA isoform inhibition during development of colitis in mice in vivo during TNBS administration was assessed. This mouse model is known to recapitulate many features of human Crohn's Disease. Mice received either an intracolonic (i.c.) injection or oral delivery (p.o.) of the MJK compounds once daily for a period of 5 days and health status, weight loss, and disease activity were monitored. Mice (male C57BL/6J, 8-10 wks old) are weighed and monitored daily. On the final day, blood, feces, and colonic samples for RNA, protein and histology are collected for downstream analysis. […]

For series [3], the target named is T1, HDAC9 (Homo sapiens, UniProt Q9UKV0).
T1 construct: purchased BPS Bioscience 50069
In words: Fluorogenic HDAC9 activity assay. The class given is biochemical. The settings on record: fluorogenic assay kit, in words. Here is the method:
To measure the effects of MJK-001, -004, -006 and -008 on HDAC4 & 9 activity fluorogenic HDAC9 (#50069) and HDAC4 (#50064) assay kits (BPS Bioscience) were used. Briefly, these assays consist of two steps; in the first one the HDAC fluorometric substrate containing an acetylated lysine side chain is incubated with purified HDAC9. In the second step, the deacetylation sensitizes the substrate so subsequent treatment with the lysine developer produces a fluorophore that was measured by a fluorescence reader.

In series [4] the test system is bladder cancer cells. Put plainly: Bladder cancer cell growth, overall finding. The series is classed as cell-based. The settings on record: in words. Here is the method:
1.8×10^3 cells/well were plated in quadruplicates in 96-well plate and treated with exogenously added MJK analogues 6 hours after plating. For the experiments performed to calculate the IC50s of HDAC9 analogues, a secondary treatment of exogenously added MJK analogues was performed 2 days later. Cell growth was assessed 1, 3, 5 or 7 days after plating using the CellTiter Glo Luminescence Cell Viability Assay (Promega) according to manufacturer's protocol. For the experiments where the effect of combinatorial treatment of MJK-004 analogues with chemotherapy was assessed, treatment of cells with gemcitabine (10 nM) or 5-fluouracil (2000 nM) was performed one day after MJK-004 treatment and the cells were further treated with exogenously added MJK analogues 2 days later. Cell growth was assessed 3, 4, 5 or 6 days after plating using the CellTiter Glo Luminescence Cell Viability Assay (Promega) according to manufacturer's protocol. Data are expressed as mean […] (arbitrary units)±S.D.
Cell Viability Assays were employed to determine the concentration of MJK analogues where the response is reduced by half. For each treatment of cancer cells, 1, 2, 5, 10 and 20 μM of MJK analogues were applied. GraphPad Prism 7 software was used to fit dose response curves. Relative Luciferase Activity Units were plotted against the log values of the doses used and the nonlinear regression model was used for data analysis.
MJK-004 efficacy on bladder cancer cell growth and colony-formation ability: Based on the above findings, the MJK compounds were examined to determine if they had substantially better efficacy than MJK-001 to suppress bladder cancer cell growth by calculating the IC50 values.
The synthesized series of MJK chemical compounds have increased specificity for HDAC9 or HDAC4 isoforms. […] On the other hand, MJK-004 is highly efficient in blocking bladder cancer cell growth through regulation of HDAC4 isoform. MJK-006 and MJK-008 compounds have the potential to be developed as therapeutics for Crohn's Disease and other auto-immune diseases. […]

Setting [5] is: i.c. administration, 50 mg/kg daily for 5 days, day 4, vs vehicle-treated mice, hydrochloride, 50 mg/kg.
Where [6] appears, read: i.c. administration, 50 mg/kg daily for 5 days, day 4, vs vehicle-treated mice, listed as MJK-008, hydrochloride, 50 mg/kg.
The mark [7] stands for this setting: oral administration (p.o., 50 mg/kg daily).
The mark [8] stands for this setting: i.c. administration, 50 mg/kg daily for 5 days, day 4, vs vehicle-treated mice, 50 mg/kg.
Where [9] appears, read: i.c. administration, 50 mg/kg daily for 5 days, day 4, vs vehicle-treated mice, listed as MJK-004, 50 mg/kg.
Where [10] appears, read: i.c. administration, 50 mg/kg daily for 5 days, day 4, vs vehicle-treated mice, listed as MJK-001, 50 mg/kg.

Entries after “also recorded” stand apart in the source; their conditions may differ. Where two headings read alike, the source gives them in different places.

T1 sequence (Q9UKV0 whole entry): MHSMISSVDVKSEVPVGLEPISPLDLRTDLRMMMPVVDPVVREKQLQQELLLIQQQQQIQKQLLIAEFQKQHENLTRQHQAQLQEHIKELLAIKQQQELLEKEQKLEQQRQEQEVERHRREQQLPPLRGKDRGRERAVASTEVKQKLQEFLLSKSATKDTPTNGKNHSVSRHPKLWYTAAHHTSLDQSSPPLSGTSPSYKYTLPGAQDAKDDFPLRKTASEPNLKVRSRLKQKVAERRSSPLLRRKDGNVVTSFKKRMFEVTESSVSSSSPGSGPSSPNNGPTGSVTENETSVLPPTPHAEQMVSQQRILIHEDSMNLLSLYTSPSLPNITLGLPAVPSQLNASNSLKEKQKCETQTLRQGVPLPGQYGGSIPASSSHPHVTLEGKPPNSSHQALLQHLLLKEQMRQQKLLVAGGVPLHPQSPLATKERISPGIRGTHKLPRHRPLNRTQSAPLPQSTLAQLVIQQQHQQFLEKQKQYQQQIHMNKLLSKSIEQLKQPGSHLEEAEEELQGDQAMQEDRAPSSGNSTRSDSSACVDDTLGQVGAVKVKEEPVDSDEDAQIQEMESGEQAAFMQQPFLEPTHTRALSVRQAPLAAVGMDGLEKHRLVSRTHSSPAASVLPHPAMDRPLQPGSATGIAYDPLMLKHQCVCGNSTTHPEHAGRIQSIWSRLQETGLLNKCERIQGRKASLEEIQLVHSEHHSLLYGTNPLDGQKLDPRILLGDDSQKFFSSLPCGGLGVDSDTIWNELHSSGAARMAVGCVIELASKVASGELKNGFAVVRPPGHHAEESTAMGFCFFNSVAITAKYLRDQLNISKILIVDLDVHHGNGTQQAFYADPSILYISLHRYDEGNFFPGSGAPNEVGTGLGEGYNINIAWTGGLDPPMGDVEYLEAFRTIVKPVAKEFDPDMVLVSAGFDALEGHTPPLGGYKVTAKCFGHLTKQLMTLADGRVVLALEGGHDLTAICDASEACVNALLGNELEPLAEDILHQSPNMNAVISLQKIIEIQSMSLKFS

Consider `Cl.Cn1c(/C=C/C(=O)NO)ccc1/C=C/C(=O)c1cccnc1` [MJK008, (E)-N-Hydroxy-3-(1-methyl-5-((E)-3-oxo-3-(pyridin-3-yl)prop-1-en-1-yl)-1H-pyrrol-2-yl)ac-rylamide hydrochloride], for which the Solubility score result in series [1] (hydrochloride) was “highest solubility”. In series [2] (setting [5]), the clinical score entry is given as “♦♦”, the colon length entry is recorded as “♦” and the histological score result is “♦♦♦”. Also, in series [2] (setting [6]), the clinical score entry is “decreasing the clinical and histological score”; the colon length result is given as “significant effect in preserving colon length”; the histological score entry is “decreasing the clinical and histological score”. For the same compound, in series [2] (i.c. administration, hydrochloride), the overall score result is “substantial effect on suppressing TNBS-induced colitis”. Further, in series [2] (setting [7]), the clinical score result was “highly efficient in reducing the clinical score”, the colon length result is reported as “preserving colon length” and the histology score entry is given as “decreasing the histology score”. Also, the “HDAC9 activity / specificity” value in series [3] (hydrochloride) is reported as “high specificity for the HDAC9 isoform; also recorded: significantly increased specificity of targeting the HDAC9 isoform”. For the same compound, the “effect on bladder cancer cell growth” value in series [4] was “did not have any effect”.

Regarding `Cn1c(/C=C/C(=O)NO)ccc1/C=C/C(=O)c1cccnc1` [MJK006, (E)-N-hydroxy-3-(1-methyl-5-((E)-3-oxo-3-(pyridin-3-yl)prop-1-en-1-yl)-1H-pyrrol-2-yl)acrylamide], in series [1], the Solubility score entry is recorded as “worst solubility”. Moreover, in series [2] (setting [8]), the clinical score result is reported as “♦♦”, the colon length entry is “♦♦” and the histological score entry is “♦♦♦”. Moreover, the histological score entry in series [2] (i.c. administration, 50 mg/kg daily for 5 days, day 4, vs vehicle-treated mice, listed as MJK-006, 50 mg/kg) is “significant differences”. The overall score entry in series [2] (i.c. administration) is “substantial effect on suppressing TNBS-induced colitis”. Also, the “HDAC9 activity / specificity” value in series [3] is reported as “high specificity for the HDAC9 isoform; also recorded: significantly increased specificity of targeting the HDAC9 isoform”. Moreover, the “effect on bladder cancer cell growth” value in series [4] is listed as “did not have any effect”.

Regarding `Cn1c(/C=C/C(=O)NO)ccc1/C=C/C(=O)c1cccs1` [MJK004, (E)-N-hydroxy-3-(1-methyl-5-((E)-3-oxo-3-(thiophen-2-yl)prop-1-en-1-yl)-1H-pyrrol-2-yl)acrylamide], in series [2] (setting [8]), the clinical score entry was “♦♦” and the colon length entry was “ns”. Also, in series [2] (setting [9]), the clinical score result is “reduction in clinical scoring” and the colon length result is “did not alter colon length”. Also, in series [3], the “HDAC9 activity / specificity” value is given as “very low activity against HDAC9”. The “effect on bladder cancer cell growth” value in series [4] is recorded as “highest efficacy”.

With `Cn1c(/C=C/C(=O)NO)ccc1/C=C/C(=O)c1cccc(F)c1` [MJK001, (E)-3-(5-((E)-3-(3-Fluorophenyl)-3-oxoprop-1-en-1-yl)-1-methyl-1H-pyrrol-2-yl)-N-hydro-xyacrylamide], in series [2] (i.c. administration, 50 mg/kg daily for 5 days, day 4, vs vehicle-treated mice), the histological score entry is “♦♦”. Also, in series [2] (setting [8]), the clinical score result is “♦♦” and the colon length entry was “♦♦”. For the same compound, in series [2] (setting [10]), the clinical score entry is given as “statistical significance in the reduction of the clinical score” and the colon length result is on record as “increase of colon length”. Also, the “HDAC9 activity / specificity” value in series [3] is “partially blocks”.
